The results in this text go back to paper PMC7674269 (Biochemistry, 2020).

Assay [1] has as its target T1, sortilin (Homo sapiens, UniProt Q99523).
T1 sequence (Q99523 78-755): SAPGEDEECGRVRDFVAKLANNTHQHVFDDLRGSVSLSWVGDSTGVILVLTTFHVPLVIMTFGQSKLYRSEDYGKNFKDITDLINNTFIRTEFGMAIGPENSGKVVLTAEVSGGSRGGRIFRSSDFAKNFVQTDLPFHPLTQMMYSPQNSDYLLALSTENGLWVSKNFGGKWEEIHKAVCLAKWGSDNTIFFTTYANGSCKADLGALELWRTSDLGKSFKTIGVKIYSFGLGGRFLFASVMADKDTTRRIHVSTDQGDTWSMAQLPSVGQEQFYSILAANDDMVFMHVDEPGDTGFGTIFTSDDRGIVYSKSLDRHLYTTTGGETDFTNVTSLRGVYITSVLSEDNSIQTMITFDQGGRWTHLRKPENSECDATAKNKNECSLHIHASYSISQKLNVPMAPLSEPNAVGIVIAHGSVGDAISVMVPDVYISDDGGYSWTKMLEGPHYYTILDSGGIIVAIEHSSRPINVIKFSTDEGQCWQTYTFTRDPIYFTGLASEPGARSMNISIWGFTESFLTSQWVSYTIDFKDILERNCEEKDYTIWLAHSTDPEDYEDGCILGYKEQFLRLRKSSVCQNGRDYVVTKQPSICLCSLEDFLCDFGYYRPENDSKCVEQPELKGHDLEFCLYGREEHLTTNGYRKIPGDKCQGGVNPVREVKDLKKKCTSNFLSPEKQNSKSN
Briefly: SPR, immobilised sortilin, CM5 chip. The format is binding. In general terms: SPR reads the build-up and loss of mass on a sensor chip optically.

In assay [2] the target is T2, Neurotensin C-terminal fragment (Ct-NT) C-terminal 4 residues (Homo sapiens, UniProt P30990).
T2 chain: PYIL
The experiment in a line: SPR.

Assay [3] has as its target T2, Neurotensin C-terminal fragment (Ct-NT) …. The experiment in a line: SPR competition with PIP3 nanodiscs.

In assay [1], `CCCCCCCC(=O)OC[C@H](COP(=O)(O)O[C@H]1[C@H](O)[C@@H](OP(=O)(O)O)[C@H](OP(=O)(O)O)[C@@H](OP(=O)(O)O)[C@H]1O)OC(=O)CCCCCCC` [diC8-PIP3] had a Kd of 4200 ± 400 nM.
Molecule `C[C@@H](NC(=O)c1ccccc1NCC(=O)O)c1ccccc1` [cpd541] registered a Kd in assay [1] of 6900 ± 1100 nM.
For `CN1CCC[C@H]1C(=O)Nc1cccc(NC(=O)CCc2ccccc2)c1` [cpd984, (2S)-1-methylN-3-[(3-phenypropanoyl)-amino]phenylpyrrolidine-2-carboxamied], in assay [1], the Kd was found to be 118 ± 38 nM.

B1: Sortilin luminal beta-propeller domain (protein)
chain: NNTHQHVFDDLRGSVSLSWVGDSTGVILVLTTFHVPLVIMTFGQSKLYRSEDYGKNFKDITDLINNTFIRTEFGMAIGPENSGKVVLTAEVSGGSRGGRIFRSSDFAKNFVQTDLPFHPLTQMMYSPQNSDYLLALSTENGLWVSKNFGGKWEEIHKAVCLAKWGSDNTIFFTTYANGSCKADLGALELWRTSDLGKSFKTIGVKIYSFGLGGRFLFASVMADKDTTRRIHVSTDQGDTWSMAQLPSVGQEQFYSILAANDDMVFMHVDEPGDTGFGTIFTSDDRGIVYSKSLDRHLYTTTGGETDFTNVTSLRGVYITSVLSEDNSIQTMITFDQGGRWTHLRKPENSECDATAKNKNECSLHIHASYSISQKLNVPMAPLSEPNAVGIVIAHGSVGDAISVMVPDVYISDDGGYSWTKMLEGPHYYTILDSGGIIVAIEHSSRPINVIKFSTDEGQCWQTYTFTRDPIYFTGLASEPGARSMNISIWGFTESFLTSQWVSYTIDF
In turn, B1 gave a Kd in assay [2] of about 120 nM. The same molecule returned an IC50 in assay [3] of 157 nM.

One may read the Kd as the equilibrium constant for the complex coming apart. Read a high Kd as a looser complex. In general, IC50 refers to the concentration at which inhibition is half-maximal. A low value points to greater potency.
